Test results taken from ChEMBL document CHEMBL1201862, “PubChem BioAssay data set” (2004).
Active and inactive are the calls of the source.

How the values were obtained:
HEK293 [1] = test: cells; assay type: functional, cell-based; settings: Homo sapiens
[2] = HepG2 cell cytotoxicity, dose response, cytotoxicity control for Shn3 inhibitor project, CellTiter-Glo, cherry-picked (AID 624134); assay type: functional, cell-based
[3] = target: Nucleotide-binding oligomerization domain-containing protein 1 (Homo sapiens, UniProt Q9Y239); test: NOD1 signaling inhibitors, SAR follow-up, revised (AID 2333); assay type: functional
Chain of Nucleotide-binding oligomerization domain-containing protein 1 (Q9Y239 whole entry, the tested form may be a part): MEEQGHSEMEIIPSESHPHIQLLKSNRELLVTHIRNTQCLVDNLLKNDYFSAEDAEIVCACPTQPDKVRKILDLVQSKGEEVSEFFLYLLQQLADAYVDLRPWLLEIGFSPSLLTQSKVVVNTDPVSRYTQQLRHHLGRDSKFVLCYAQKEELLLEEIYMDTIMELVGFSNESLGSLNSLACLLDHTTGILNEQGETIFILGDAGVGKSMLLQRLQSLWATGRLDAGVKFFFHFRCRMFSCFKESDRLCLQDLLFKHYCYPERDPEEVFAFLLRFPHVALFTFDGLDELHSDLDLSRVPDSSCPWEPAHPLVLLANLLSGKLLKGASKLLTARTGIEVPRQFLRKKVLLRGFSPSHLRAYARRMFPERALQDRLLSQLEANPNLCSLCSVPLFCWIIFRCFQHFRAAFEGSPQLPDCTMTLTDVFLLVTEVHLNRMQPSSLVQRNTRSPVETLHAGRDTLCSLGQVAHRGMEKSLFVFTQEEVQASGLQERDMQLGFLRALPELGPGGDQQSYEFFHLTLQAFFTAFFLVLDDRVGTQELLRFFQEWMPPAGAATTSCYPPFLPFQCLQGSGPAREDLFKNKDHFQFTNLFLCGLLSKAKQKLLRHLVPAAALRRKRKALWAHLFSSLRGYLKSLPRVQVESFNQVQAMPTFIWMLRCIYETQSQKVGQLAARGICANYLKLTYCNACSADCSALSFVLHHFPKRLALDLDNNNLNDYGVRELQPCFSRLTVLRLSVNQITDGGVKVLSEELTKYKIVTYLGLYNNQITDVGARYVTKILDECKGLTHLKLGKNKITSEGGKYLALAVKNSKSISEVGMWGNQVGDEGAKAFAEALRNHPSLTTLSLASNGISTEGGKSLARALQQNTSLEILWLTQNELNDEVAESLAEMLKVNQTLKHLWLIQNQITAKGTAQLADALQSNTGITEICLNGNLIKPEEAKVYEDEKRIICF

HEK293 [4] = test: NOD2 signaling inhibitors in MDP-stimulated cells, cell-based, uHTS, luminescence (AID 2001); assay type: functional; settings: Homo sapiens
HEK293 [5] = test: cells; settings: Homo sapiens
[6] = Shn3 3'UTR reporter inhibitors, dose response, cell-based, Clone20 osteoblasts, firefly luciferase, cherry-picked (AID 624132); assay type: functional;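 also: firefly luciferase luminescence from reporter carrying the Shn3 3'UTR in osteoblasts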
[7] = control 3'UTR Renilla luciferase suppression, dose response, counter-screen for Shn3 inhibitor project, cell-based, Clone20-Shn3RL, cherry-picked (AID 624133); assay type: functional
INS1 = test: beta cell apoptosis inhibitors, cytokine rescue, dose response, luminescence, retest (AID 449756); assay type: functional, cell-based; settings: Rattus norvegicus;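 also: cell death triggered by IL-1 beta plus TNF-alpha plus IFN-gamma mixture; protective hits raise ATP signal compared with cytokine alone wells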
HEK293 [8] = test: cells; assay type: functional, cell-based; settings: Homo sapiens; remark: listed apart in the source
HEK293 [9] = test: NOD1 signaling inhibitors, primary screen, cell-based, luminescence, uHTS (AID 1578); assay type: functional; settings: Homo sapiens
Genome polyprotein = Genome polyprotein (dengue virus type 2, UniProt P29990); test: Dengue-2 NS5 methyltransferase inhibitors, primary screen, biochemical, confirmation dose response (AID 588689); assay type: functional
[10] = target: Dual specificity protein phosphatase 6 (Rattus norvegicus, UniProt Q64346); test: MKP-3 phosphatase inhibitors, primary screen, biochemical, rat enzyme, in vitro (AID 425)
Beta-galactosidase = Beta-galactosidase (Escherichia coli, UniProt Q8VNN2); test: beta-galactosidase enzyme inhibitors and activators, dose response, artefact control for CCR6 antagonist project, biochemical, E. coli enzyme, set 3 (AID 504712); assay type: functional
Protein RecA = target: T1, Protein RecA (Mycobacterium tuberculosis, UniProt P9WHJ3); test: Fluorescence Cell-Free Homogeneous Dose Retest to Identify Inhibitors of RecA-Intein Splicing Activity. [Related pubchem assays (depositor defined):AID2097, AID2223, AID489010, AID492950]; assay type: functional
T1 sequence (P9WHJ3 whole entry): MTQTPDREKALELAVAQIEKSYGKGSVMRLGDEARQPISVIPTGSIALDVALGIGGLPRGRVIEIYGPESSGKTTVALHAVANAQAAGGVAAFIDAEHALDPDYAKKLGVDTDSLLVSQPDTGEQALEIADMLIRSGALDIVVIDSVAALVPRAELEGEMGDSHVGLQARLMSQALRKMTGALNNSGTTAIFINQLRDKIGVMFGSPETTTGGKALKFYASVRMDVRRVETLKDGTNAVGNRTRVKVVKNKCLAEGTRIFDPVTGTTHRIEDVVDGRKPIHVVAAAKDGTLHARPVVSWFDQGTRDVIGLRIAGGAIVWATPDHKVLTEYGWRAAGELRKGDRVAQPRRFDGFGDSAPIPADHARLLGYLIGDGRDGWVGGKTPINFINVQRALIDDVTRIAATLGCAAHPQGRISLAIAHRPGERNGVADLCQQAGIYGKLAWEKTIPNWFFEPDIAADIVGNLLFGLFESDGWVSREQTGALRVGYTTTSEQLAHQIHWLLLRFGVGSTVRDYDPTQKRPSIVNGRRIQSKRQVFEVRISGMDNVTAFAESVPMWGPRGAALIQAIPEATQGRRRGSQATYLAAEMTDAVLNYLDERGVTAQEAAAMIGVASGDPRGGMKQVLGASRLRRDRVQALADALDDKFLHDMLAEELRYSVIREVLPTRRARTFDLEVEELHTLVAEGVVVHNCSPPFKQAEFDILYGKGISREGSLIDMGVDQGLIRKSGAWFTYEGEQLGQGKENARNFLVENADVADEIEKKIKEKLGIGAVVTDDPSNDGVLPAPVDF

[11] = target: T2, Replicative DNA helicase DnaB (Mycobacterium tuberculosis, UniProt P9WMR3); test: DnaB intein splicing inhibitors, dose response, biochemical, cell-free fluorescence (AID 449749); assay type: functional
T2 sequence (P9WMR3 whole entry): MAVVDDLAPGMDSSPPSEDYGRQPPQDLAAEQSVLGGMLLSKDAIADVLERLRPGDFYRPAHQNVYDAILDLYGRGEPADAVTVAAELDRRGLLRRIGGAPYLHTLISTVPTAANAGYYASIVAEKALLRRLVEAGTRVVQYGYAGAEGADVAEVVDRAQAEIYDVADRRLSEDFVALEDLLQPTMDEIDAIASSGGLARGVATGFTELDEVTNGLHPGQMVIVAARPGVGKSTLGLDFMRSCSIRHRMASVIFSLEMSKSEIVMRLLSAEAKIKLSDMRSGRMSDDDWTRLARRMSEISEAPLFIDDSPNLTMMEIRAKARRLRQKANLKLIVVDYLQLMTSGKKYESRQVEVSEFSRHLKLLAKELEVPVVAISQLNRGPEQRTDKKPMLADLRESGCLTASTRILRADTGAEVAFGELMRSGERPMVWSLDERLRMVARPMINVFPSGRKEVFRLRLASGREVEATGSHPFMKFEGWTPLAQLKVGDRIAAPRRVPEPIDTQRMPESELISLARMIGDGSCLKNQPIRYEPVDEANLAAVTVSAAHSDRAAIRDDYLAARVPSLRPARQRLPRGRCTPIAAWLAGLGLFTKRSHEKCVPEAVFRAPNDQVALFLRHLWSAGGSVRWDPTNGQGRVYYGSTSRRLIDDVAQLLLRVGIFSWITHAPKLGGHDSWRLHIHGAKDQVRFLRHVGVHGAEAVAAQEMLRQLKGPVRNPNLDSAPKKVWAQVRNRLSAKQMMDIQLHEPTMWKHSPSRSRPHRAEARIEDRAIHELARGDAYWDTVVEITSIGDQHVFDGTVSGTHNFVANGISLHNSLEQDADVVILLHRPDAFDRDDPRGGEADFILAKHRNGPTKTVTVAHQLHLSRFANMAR

Bcl-2-like protein 1 = Bcl-2-like protein 1 (Homo sapiens, UniProt Q07817); test: BCL-XL inhibitors, dose response, selectivity assay for MCL1 inhibitor project, biochemical, fluorescence polarization, 1536-well (AID 2218)
Chain of Bcl-2-like protein 1 (Q07817 whole entry): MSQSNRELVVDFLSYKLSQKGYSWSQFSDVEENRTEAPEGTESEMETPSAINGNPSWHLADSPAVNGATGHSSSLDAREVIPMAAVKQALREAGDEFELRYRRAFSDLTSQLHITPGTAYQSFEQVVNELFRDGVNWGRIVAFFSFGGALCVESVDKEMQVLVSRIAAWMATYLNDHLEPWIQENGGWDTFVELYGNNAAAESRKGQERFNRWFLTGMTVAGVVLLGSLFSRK

[12] = target: T3, Dual specificity protein phosphatase 3 (Homo sapiens, UniProt P51452); test: VHR1 phosphatase inhibitors, biochemical (AID 1878)
T3 sequence (P51452 whole entry): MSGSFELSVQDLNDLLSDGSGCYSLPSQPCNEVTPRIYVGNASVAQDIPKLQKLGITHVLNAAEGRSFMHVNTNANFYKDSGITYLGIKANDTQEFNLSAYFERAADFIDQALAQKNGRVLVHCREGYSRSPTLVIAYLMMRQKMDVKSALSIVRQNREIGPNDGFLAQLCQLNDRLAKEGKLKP

[13] = target: T3, Dual specificity protein phosphatase 3; test: VHR1 phosphatase inhibitors, primary screen, biochemical, absorbance, uHTS (AID 1654)
[14] = target: Induced myeloid leukemia cell differentiation protein Mcl-1 (Homo sapiens, UniProt Q07820); test: MCL1-BIM BH3 interaction inhibitors, dose response, biochemical, fluorescence polarization, BIM-BH3 peptide, 1536-well (AID 2217)
Chain of Induced myeloid leukemia cell differentiation protein Mcl-1 (Q07820 whole entry): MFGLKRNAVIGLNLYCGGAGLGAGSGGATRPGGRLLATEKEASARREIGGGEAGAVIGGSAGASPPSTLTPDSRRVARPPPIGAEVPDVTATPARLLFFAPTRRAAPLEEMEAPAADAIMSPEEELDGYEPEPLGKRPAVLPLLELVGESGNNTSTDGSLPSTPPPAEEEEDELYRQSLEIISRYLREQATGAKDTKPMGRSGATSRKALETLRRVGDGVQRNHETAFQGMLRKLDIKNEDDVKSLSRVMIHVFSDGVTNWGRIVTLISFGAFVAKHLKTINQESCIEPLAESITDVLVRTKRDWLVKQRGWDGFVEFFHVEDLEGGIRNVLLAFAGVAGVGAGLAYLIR

[15] = target: T4, Voltage-gated N-type calcium channel alpha-1B subunit/Amyloid beta A4 precursor protein-binding family A member 1 (Homo sapiens, UniProt Q00975+Q02410); assay type: protein assay
T4 sequence (Q00975 whole entry): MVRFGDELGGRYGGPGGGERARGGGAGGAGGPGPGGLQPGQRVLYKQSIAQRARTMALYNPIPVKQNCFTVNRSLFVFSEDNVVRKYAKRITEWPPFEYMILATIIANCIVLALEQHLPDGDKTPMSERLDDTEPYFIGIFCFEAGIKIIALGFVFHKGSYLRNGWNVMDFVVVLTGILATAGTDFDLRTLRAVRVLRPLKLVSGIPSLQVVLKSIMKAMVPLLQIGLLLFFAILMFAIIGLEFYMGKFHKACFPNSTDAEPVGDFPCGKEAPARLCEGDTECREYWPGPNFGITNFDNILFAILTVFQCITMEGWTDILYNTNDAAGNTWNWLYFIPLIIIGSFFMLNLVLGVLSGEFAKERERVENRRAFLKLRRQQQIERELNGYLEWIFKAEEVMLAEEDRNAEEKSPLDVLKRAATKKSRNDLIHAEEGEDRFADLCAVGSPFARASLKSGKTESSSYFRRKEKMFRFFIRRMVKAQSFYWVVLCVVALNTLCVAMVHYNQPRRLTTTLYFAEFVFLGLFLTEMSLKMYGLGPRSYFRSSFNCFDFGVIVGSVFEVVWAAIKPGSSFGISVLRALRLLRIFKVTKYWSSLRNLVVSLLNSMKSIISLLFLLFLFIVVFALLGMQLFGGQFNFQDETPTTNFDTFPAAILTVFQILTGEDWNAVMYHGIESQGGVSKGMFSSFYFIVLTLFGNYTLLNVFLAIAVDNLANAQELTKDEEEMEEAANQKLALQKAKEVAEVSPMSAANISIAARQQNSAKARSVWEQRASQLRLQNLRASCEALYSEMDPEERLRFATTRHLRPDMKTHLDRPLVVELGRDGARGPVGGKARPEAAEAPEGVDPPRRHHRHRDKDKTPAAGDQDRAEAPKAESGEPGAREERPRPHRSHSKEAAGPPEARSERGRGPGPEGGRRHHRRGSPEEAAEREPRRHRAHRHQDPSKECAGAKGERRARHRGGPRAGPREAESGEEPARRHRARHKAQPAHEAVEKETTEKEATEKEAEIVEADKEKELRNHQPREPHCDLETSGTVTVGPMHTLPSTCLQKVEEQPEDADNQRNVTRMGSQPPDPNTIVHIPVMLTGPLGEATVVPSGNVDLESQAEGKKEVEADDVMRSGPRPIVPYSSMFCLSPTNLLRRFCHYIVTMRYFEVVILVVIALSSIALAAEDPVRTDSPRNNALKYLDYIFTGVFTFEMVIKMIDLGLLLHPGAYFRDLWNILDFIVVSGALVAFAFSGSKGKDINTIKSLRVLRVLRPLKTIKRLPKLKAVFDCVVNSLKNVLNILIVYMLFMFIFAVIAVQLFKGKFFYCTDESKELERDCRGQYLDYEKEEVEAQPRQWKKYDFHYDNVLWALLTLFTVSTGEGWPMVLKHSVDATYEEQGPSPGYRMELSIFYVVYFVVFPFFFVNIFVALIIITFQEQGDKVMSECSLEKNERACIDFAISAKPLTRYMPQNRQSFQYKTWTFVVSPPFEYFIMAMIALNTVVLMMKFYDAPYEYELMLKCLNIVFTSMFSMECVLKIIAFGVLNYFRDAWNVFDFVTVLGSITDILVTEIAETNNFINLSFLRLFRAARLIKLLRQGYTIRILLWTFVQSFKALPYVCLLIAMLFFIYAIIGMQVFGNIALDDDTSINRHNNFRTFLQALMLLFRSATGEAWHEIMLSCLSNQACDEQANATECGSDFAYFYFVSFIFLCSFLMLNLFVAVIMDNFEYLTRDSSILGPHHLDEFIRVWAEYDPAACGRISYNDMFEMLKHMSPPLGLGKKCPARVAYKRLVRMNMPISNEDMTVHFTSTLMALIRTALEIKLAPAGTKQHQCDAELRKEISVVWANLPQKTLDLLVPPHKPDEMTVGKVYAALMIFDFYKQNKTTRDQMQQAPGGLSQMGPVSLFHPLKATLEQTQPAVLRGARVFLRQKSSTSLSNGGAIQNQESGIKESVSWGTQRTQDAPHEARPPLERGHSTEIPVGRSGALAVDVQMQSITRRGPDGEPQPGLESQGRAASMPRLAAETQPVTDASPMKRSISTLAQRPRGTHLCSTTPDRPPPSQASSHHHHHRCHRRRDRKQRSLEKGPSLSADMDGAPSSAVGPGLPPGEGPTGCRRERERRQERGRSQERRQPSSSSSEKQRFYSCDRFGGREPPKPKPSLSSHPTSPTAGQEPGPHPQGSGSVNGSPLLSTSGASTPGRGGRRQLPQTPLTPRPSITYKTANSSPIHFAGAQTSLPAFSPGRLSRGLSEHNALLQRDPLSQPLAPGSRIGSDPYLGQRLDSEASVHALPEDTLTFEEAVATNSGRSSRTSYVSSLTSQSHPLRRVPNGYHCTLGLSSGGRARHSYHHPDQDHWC
T4 sequence (Q02410 whole entry): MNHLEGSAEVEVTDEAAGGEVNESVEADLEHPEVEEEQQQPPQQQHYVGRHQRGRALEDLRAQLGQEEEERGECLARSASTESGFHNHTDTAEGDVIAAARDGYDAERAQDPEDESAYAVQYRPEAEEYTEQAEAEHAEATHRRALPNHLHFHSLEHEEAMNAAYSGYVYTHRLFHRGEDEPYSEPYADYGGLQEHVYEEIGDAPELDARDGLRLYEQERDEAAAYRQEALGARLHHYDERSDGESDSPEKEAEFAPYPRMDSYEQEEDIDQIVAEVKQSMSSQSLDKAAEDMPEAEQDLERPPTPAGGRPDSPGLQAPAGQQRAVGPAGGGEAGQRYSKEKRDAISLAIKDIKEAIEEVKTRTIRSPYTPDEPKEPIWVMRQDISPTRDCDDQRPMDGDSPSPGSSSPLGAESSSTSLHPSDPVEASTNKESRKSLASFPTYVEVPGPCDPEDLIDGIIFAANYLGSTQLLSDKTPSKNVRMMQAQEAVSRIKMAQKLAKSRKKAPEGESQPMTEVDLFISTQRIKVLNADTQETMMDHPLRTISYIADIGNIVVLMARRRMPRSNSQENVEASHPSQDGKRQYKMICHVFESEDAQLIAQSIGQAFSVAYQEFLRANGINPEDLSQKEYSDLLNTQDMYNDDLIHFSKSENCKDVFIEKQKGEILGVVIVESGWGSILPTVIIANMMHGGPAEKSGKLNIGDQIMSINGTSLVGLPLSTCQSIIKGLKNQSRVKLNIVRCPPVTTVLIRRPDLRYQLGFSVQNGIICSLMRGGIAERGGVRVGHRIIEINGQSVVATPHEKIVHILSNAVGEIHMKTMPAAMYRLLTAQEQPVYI

[16] = target: T4, Voltage-gated N-type calcium channel alpha-1B subunit/Amyloid beta A4 precursor protein-binding family A member 1; assay type: protein assay; remark: listed apart in the source
[17] = target: T5, Sphingosine 1-phosphate receptor 4 (Homo sapiens, UniProt O95977); test: S1P4 receptor antagonists, human, late-stage follow-up, cell-based, fluorescence, synthesized analogues (AID 2346); assay type: functional
T5 sequence (O95977 whole entry): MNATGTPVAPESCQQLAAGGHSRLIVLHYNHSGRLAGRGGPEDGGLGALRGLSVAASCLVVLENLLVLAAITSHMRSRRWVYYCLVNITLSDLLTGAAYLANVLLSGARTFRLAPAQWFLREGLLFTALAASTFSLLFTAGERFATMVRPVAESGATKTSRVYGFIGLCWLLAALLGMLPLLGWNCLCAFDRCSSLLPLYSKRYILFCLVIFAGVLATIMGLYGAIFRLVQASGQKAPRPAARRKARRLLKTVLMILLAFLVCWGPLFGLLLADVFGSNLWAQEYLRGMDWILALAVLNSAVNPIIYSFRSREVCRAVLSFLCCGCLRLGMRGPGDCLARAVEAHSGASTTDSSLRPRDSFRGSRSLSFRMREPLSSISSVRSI

[18] = target: Sphingosine 1-phosphate receptor 5 (Homo sapiens, UniProt Q9H228); test: Late stage counterscreen assay for S1P4 antagonists: Fluorescence dose response cell-based screening assay for antagonists of the Sphingosine 1-Phosphate Receptor 5 (S1P5). [Related pubchem assays (depositor defined):AID1510, AID1524, AID1692, AID1853, AID2332, AID489009, AID489017]; assay type: functional
[19] = target: Sphingosine 1-phosphate receptor 1 (Homo sapiens, UniProt P21453); test: Late stage counterscreen assay for S1P4 antagonists: Fluorescence dose response cell-based screening assay for antagonists of the Sphingosine 1-Phosphate Receptor 1 (S1P1). [Related pubchem assays (depositor defined):AID1510, AID1524, AID1692, AID1853, AID2332, AID489009, AID489017]; assay type: functional
[20] = target: Sphingosine 1-phosphate receptor 3 (Homo sapiens, UniProt Q99500); test: Late stage counterscreen assay for S1P4 antagonists: Fluorescence dose response cell-based screening assay for antagonists of the Sphingosine 1-Phosphate Receptor 3 (S1P3). [Related pubchem assays (depositor defined):AID1510, AID1524, AID1692, AID1853, AID2332, AID489009, AID489017]; assay type: functional
[21] = target: Sphingosine 1-phosphate receptor 2 (Homo sapiens, UniProt O95136); test: Late stage counterscreen assay for S1P4 antagonists: Fluorescence dose response cell-based screening assay for antagonists of the Sphingosine 1-Phosphate Receptor 2 (S1P2). [Related pubchem assays (depositor defined):AID1510, AID1524, AID1692, AID1853, AID2332, AID489009, AID489017]; assay type: functional
[22] = target: FAD-linked sulfhydryl oxidase ALR (Homo sapiens, UniProt P55789); test: inhibitors of human ALR sulfhydryl oxidase, dose response, biochemical, H2O2 detection, luminescence, cherry-pick (AID 493248)
[23] = target: Lysine-specific demethylase 4C (Homo sapiens, UniProt Q9H3R0); test: GASC-1 (JMJD2C) histone demethylase inhibitors, dose response, biochemical, DELFIA europium, cherry-picked samples (AID 488835); assay type: functional
[24] = target: T6, RNA-binding protein pos-1 (Caenorhabditis elegans, UniProt G5EF15); test: inhibitors of POS-1/mex-3 RNA binding, dose response, biochemical, fluorescence polarization (AID 1964);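 also: purified POS-1 fused to maltose binding protein made in E. coli; potency of compounds blocking POS-1 binding to fluorescent RNA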
T6 sequence (G5EF15 whole entry): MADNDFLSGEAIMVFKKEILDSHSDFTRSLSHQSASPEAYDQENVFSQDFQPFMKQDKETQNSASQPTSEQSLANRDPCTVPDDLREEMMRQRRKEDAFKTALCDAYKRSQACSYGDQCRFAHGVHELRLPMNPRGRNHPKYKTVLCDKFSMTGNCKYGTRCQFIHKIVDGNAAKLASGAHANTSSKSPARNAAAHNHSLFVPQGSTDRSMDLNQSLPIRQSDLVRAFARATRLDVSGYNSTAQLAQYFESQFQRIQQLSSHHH

[25] = target: T7, Zinc finger protein mex-5 (Caenorhabditis elegans, UniProt Q9XUB2); test: MEX-5/TCR-2 RNA interaction inhibitors, dose response, biochemical, C. elegans, fluorescence polarization (AID 1960)
T7 sequence (Q9XUB2 whole entry): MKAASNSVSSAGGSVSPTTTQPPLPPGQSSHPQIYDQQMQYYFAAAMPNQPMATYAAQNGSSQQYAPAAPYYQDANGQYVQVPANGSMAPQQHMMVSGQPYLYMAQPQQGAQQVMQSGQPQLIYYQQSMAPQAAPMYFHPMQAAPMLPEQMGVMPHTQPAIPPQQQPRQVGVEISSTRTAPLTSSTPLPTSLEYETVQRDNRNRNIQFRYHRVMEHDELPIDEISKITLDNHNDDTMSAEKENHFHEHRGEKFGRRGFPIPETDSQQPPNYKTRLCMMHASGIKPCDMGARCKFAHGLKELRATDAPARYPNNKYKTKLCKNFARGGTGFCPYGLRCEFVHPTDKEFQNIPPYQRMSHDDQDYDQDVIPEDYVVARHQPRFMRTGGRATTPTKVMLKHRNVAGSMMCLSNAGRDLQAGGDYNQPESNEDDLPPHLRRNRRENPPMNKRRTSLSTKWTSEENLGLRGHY

SMILES: CC1Sc2ccc(S(=O)(=O)N3CCC(C(=O)Nc4ccc(Cl)cc4)CC3)cc2NC1=O (stereo not given)
- IC50 (HEK293 [1]): 8.24 µM (active)
- AC50 [2]: 3.26 µM (active)
- IC50 [3]: 3.11 µM (active)
- IC50 (HEK293 [4]): 3.93 µM (active)
- IC50 (HEK293 [5]): 7.68 µM (active)
- AC50 [6]: 2.42 µM (active)
- AC50 [7]: 1.6 µM (active)
- AC50 (INS1): 4.55 µM (active)
- IC50 (HEK293 [8]): 3.16 µM (active)
- EC50 (HEK293 [9]): 2.15 µM (active)

SMILES: O=C(CN1C(=O)/C(=C2\SC(=S)N(CCS(=O)(=O)O)C2=O)c2ccccc21)Nc1cccc(Br)c1
- IC50 (Genome polyprotein): 21.6 µM (active)
- IC50 [10]: 30 µM (active)
- IC50 (Beta-galactosidase): > 66.6 µM (inactive)
- EC50 (Protein RecA): 7.59 µM (active)
- AC50 [11]: 12.4 µM (active)
- IC50 (Bcl-2-like protein 1): > 109 µM (not active)
- IC50 [12]: 4.92 µM (active)
- IC50 [13]: 3.65 µM (active)
- IC50 [14]: 2 µM (active)
- IC50 [15]: > 50 µM (inactive)
- IC50 [16]: 9.59 µM (active)

SMILES: Cc1ccccc1NC(=O)c1ccc(-c2cc(Cl)ccc2Cl)o1
- IC50 [17]: 0.393 µM (active)
- IC50 [18]: > 25 µM (inactive)
- IC50 [19]: > 25 µM (inactive)
- IC50 [20]: > 25 µM (inactive)
- IC50 [21]: > 25 µM (inactive)

SMILES: Oc1cc2c(cc1O)C(c1ccccc1)CNCC2 (stereo not given)
- AC50 [22]: 5.38 µM (active)
- AC50 [23]: 15.2 µM (active)
- EC50 [24]: 109 µM (active)
- EC50 [25]: 24 µM (active)
